Data as given in patent US20200172473A1, “DUAL MODULATORS OF FARNESOID X RECEPTOR AND SOLUBLE EPOXIDE HYDROLASE” (JOHANN WOLFGANG GOETHE-UNIVERSITÄT FRANKFURT AM MAIN, priority 2017, published 2020).

Tests used:
[1] = observation of animals in the pilot in vivo study; design: species or system mouse; settings: single oral dose 10 mg/kg body weight
Experimental: Animals and compound application: 9 male C57BL/6JRj mice (23-26 g body weight, purchased from Janvier Labs, France) were used in the present study. The animals were housed in a temperature-controlled room (20-24° C.) and maintained in a 12 h light/12 h dark cycle. Food and water were available ad libitum. The in life phase was performed by the contract research organization Pharmacelsus (Saarbrücken, Germany). All experimental procedures were approved by and conducted in accordance with the regulations of the local Animal Welfare authorities (Landesamt für Gesundheit und Verbraucherschutz, Abteilung Lebensmittel-und Veterinärwesen, Saarbrücken). Six animals received a single oral dose of 10 mg/kg body weight of dual modulator 57 in water containing 1% HPMC/Tween 80 (99:1). Three animals received the vehicle (water containing 1% HPMC/Tween 80 (99:1)).

FXR-LBD = target: T1, FXR-LBD (Homo sapiens, UniProt Q96RI1); test: isothermal titration calorimetry (ITC); format: binding
T1 sequence (Q96RI1 262-486 limits assumed): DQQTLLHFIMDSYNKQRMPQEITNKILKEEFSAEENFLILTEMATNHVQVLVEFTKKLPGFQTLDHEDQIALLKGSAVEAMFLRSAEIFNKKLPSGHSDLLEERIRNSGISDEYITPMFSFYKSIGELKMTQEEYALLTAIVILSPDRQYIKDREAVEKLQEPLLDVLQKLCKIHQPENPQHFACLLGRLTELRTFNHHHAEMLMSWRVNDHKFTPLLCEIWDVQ

PPARγ = target: T2, PPARγ (Homo sapiens, UniProt P37231); test: Gal4-hybrid reporter gene assay PPARγ in HEK293T cells; format: cell-based
T2 construct: pFA-CMV-hPPARγ-LBD; expressed in transfected cells; host or cells: HEK293T
T2 sequence (P37231 238-503 limits assumed): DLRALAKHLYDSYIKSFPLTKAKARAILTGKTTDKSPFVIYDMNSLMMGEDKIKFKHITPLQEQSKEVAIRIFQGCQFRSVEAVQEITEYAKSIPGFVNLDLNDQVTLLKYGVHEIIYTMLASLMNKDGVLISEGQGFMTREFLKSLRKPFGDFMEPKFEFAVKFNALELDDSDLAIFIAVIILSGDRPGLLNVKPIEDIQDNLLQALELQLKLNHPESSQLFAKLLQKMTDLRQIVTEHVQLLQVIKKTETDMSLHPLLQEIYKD
Excerpt: Hybrid reporter gene assays for PPARα/γ/δ, LXRα/β, RXRα/β/γ, RARα/β/γ, VDR and PXR Plasmids: The Gal4-fusion receptor plasmids pFA-CMV-hPPARα-LBD^52, pFA-CMV-hPPARγ-LBD^52, pFA-CMV-hPPARδ-LBD^52, pFA-CMV-hLXRα-LBD^32 and pFA-CMV-hLXRβ-LBD^32 have been reported previously. […] Frame and sequence of all fusion receptors were verified by sequencing. pFR-Luc (Stratagene) was used as reporter plasmid and pRL-SV40 (Promega) for normalization of transfection efficiency and cell growth.
Assay procedure: HEK293T cells were grown in DMEM high glucose, supplemented with 10% FCS, sodium pyruvate (1 mM), penicillin (100 U/mL) and streptomycin (100 μg/mL) at 37° C. and 5% CO2. The day before transfection, HEK293T cells were seeded in 96-well plates (2.5·10^4 cells/well). Before transfection, medium was changed to Opti-MEM without supplements. Transient transfection was carried out using Lipofectamine LTX reagent (Invitrogen) according to the manufacturer's protocol with pFR-Luc (Stratagene), pRL-SV40 (Promega) and pFA-CMV-hRXRα-LBD. 5 h after transfection, medium was changed to Opti-MEM supplemented with penicillin (100 U/mL), streptomycin (100 μg/mL), now additionally containing 0.1% DMSO and the respective test compound or 0.1% DMSO alone as untreated control. Each concentration was tested in triplicates and each experiment was repeated independently at least three times. […] Luminescence was measured with an Infinite M200 luminometer (Tecan Deutschland GmbH). […] Fold activation was obtained by dividing the mean RLU of a test compound at a respective concentration by the mean RLU of untreated control. Relative activation was obtained by dividing the fold activation of a test compound at a respective concentration by the fold activation of a respective reference agonist at 1 μM (PPARα: GW7647; PPARγ: pioglitazone; PPARδ: L165,041; LXRα/β: T0901317; RXRs: bexarotene; RARs: tretinoin; VDR calcitriol; PXR: SR12813).

PPARγ target gene FATP = PPARγ target gene FATP mRNA quantification from mouse livers; format: in vivo; settings: 10 mg/kg p.o., 8 h post dose; vehicle 101±1

CC(C)(C)c1ccc(C(=O)NCc2ccc(NS(C)(=O)=O)cc2Cl)cc1 [compound 57, 4-(tert-Butyl)-N-(2-chloro-4-(methylsulfonamido)benzyl)benzamide]
adverse effects in mice [1]: no adverse effects
Kd (FXR-LBD): 0.13 µM
ΔH (ITC) (FXR-LBD): -19.5 kcal/mol
ΔS (ITC) (FXR-LBD): −34.0 cal/mol·K
selectivity for FXR amongst nuclear receptors (PPARγ): ≥ 720
PPARγ max. activation (PPARγ; relative to pioglitazone at 1 μM): 30±1%
EC50 (PPARγ; weak partial agonism): 14.7 ± 0.9 µM
FATP mRNA in mouse liver compared to vehicle set as 100% (PPARγ target gene FATP): not affected
